# Data: ChEMBL document CHEMBL3217548, “Biological activity and DNA binding studies of 2-substituted benzimidazo[1,2-a]quinolines bearing different amino side chains” (Medchemcomm, 2013)
# Active and inactive are the calls of the source. The rule behind the calls is not given here.
# Columns and labels:
# MCF7 = test: Cytotoxicity against human MCF7 cells after 72 hrs by MTT assay; type: functional, cell-based; conditions: MCF7, 72 h
# Calf thymus DNA [1] = test: Binding affinity to calf thymus DNA assessed as DNA intercalation at 1 to 50 uM by circular dichroism analysis; type: nucleic-acid assay; conditions: Bos taurus
# Nucleic Acid = test: DNA intercalating activity at Escherichia coli pUC19 plasmid assessed as effect on global structure of DNA helix at 5 to 50 uM incubated for 45 mins prior to topoisomerase1 addition by agarose gel electrophoresis; type: nucleic-acid assay
# Escherichia coli [2] = test: Binding affinity to Escherichia coli pUC19 plasmid assessed as nicked DNA at 5 to 50 uM by ethidium bromide staining-based agarose gel electrophoresis
# HCT-116 [3] = test: Cytotoxicity against human HCT116 cells after 72 hrs by MTT assay; type: functional, cell-based; conditions: HCT-116, 72 h
# [4] = Cytotoxicity against human H460 cells after 72 hrs by MTT assay; type: functional, cell-based; conditions: NCI-H460, 72 h
# Calf thymus DNA [5] = test: Binding affinity to calf thymus DNA assessed as change in melting temperature at 0.5 drug/DNA ratio by spectrophotometry; type: nucleic-acid assay; conditions: Bos taurus
# Homo sapiens = species on record: Homo sapiens; test: Inhibition of human DNA topoisomerase 2 assessed as inhibition of DNA cleavage
# [6] = molecular target: T1, DNA topoisomerase 1 (Homo sapiens) (UniProt P11387); test: Inhibition of human DNA topoisomerase 1 assessed as inhibition of DNA cleavage
# T1 sequence (whole entry): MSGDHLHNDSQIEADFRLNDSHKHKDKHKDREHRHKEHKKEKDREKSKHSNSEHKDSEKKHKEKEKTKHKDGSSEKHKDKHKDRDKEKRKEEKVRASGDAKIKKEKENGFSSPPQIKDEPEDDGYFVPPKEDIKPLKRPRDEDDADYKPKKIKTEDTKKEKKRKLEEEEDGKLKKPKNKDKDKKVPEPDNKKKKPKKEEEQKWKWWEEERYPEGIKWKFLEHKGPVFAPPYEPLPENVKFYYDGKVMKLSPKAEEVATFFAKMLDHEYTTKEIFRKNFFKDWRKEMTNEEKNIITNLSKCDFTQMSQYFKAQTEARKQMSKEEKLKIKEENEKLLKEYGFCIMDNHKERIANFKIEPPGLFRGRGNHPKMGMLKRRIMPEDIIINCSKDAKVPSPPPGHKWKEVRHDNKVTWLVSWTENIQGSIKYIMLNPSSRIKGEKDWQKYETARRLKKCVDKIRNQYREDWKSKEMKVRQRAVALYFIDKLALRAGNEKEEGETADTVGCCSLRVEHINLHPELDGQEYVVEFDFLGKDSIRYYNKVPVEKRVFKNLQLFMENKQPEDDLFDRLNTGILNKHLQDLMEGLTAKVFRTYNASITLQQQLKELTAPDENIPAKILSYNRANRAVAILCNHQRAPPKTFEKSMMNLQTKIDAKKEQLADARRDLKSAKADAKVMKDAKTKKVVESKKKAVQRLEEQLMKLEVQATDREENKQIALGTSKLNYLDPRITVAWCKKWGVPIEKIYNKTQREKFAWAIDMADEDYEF
# HCT-116 [7] = test: Cell cycle arrest in human HCT116 cells assessed as accumulation at S phase at 1 uM after 48 hrs by propidium iodide staining-based FACS analysis (reference value: 12+/- 5 %); type: functional
# HCT-116 [8] = test: Cell cycle arrest in human HCT116 cells assessed as accumulation at G2/M phase at 1 uM after 48 hrs by propidium iodide staining-based FACS analysis (reference value: 28 +/- 3 %); type: functional
# HCT-116 [9] = test: Cell cycle arrest in human HCT116 cells assessed as accumulation at G1 phase at 1 uM after 48 hrs by propidium iodide staining-based FACS analysis (reference value: 60 +/- 2 %); type: functional
# HCT-116 [10] = test: Cell cycle arrest in human HCT116 cells assessed as accumulation at subG1 phase at 1 uM after 48 hrs by propidium iodide staining-based FACS analysis (reference value: 5 +/- 2 %); type: functional
# HCT-116 [11] = test: Cell cycle arrest in human HCT116 cells assessed as accumulation at S phase at 1 uM after 24 hrs by propidium iodide staining-based FACS analysis (reference value: 48 +/- 6 %); type: functional
# HCT-116 [12] = test: Cell cycle arrest in human HCT116 cells assessed as accumulation at G1 phase at 1 uM after 24 hrs by propidium iodide staining-based FACS analysis (reference value: 23 +/- 2 %); type: functional
# HCT-116 [13] = test: Cell cycle arrest in human HCT116 cells assessed as accumulation at subG1 phase after 24 hrs by propidium iodide staining-based FACS analysis; type: functional
# DNA = test: Induction of DNA damage in plasmid DNA in E. coli S30 cell-free system assessed as inhibition of EGFP translation at 50 uM after 1 hr by fluorescence assay
# Calf thymus DNA [14] = test: Binding affinity to calf thymus DNA assessed as hypochromic shift at 20 uM by UV/visible spectrophotometry; type: nucleic-acid assay; conditions: Bos taurus
# HCT-116 [15] = test: Cell cycle arrest in human HCT116 cells assessed as accumulation at G2/M phase at 1 uM after 24 hrs by propidium iodide staining-based FACS analysis (reference value: 29 +/- 8 %); type: functional
# HCT-116 [16] = test: Cell cycle arrest in human HCT116 cells assessed as accumulation at subG1 phase at 1 uM after 24 hrs by propidium iodide staining-based FACS analysis (reference value: 2 +/- 0.1 %); type: functional
# Escherichia coli [17] = test: Binding affinity to Escherichia coli pUC19 plasmid assessed as induction of topoisomerase1-mediated DNA relaxation at 1 uM incubated for 45 mins prior to topoisomerase1 addition by agarose gel electrophoresis
# HCT-116 [18] = test: Cell cycle arrest in human HCT116 cells assessed as accumulation at G1 phase at 0.1 uM after 48 hrs by propidium iodide staining-based FACS analysis (reference value: 60 +/- 2 %); type: functional
# HCT-116 [19] = test: Cell cycle arrest in human HCT116 cells assessed as accumulation at G1 phase at 0.1 uM after 24 hrs by propidium iodide staining-based FACS analysis (reference value: 23 +/- 2 %); type: functional
# [20] = Drug uptake in human H460 cell cytoplasm at 10 uM after 2 hrs by fluorescence microscopy; type: ADME, cell-based; conditions: h460, 2 h
# HCT-116 [21] = test: Cell cycle arrest in human HCT116 cells assessed as accumulation at subG1 phase at 5 uM after 24 hrs by propidium iodide staining-based FACS analysis; type: functional
# Escherichia coli [22] = test: Induction of topoisomerase1-mediated Escherichia coli pUC19 plasmid relaxation at 20 to 50 uM incubated for 45 mins prior to topoisomerase1 addition by agarose gel electrophoresis
# HCT-116 [23] = test: Cell cycle arrest in human HCT116 cells assessed as accumulation at S phase at 0.1 uM after 48 hrs by propidium iodide staining-based FACS analysis (reference value: 12+/- 5 %); type: functional
# HCT-116 [24] = test: Cell cycle arrest in human HCT116 cells assessed as accumulation at subG1 phase at 0.1 uM after 24 hrs by propidium iodide staining-based FACS analysis (reference value: 2 +/- 0.1 %); type: functional
# HCT-116 [25] = test: Cell cycle arrest in human HCT116 cells assessed as accumulation at G2/M phase at 0.1 uM after 48 hrs by propidium iodide staining-based FACS analysis (reference value: 28 +/- 3 %); type: functional
# HCT-116 [26] = test: Cell cycle arrest in human HCT116 cells assessed as accumulation at subG1 phase at 0.1 uM after 48 hrs by propidium iodide staining-based FACS analysis (reference value: 5 +/- 2 %); type: functional
# HCT-116 [27] = test: Cell cycle arrest in human HCT116 cells assessed as accumulation at G2/M phase at 0.1 uM after 24 hrs by propidium iodide staining-based FACS analysis (reference value: 29 +/- 8 %); type: functional
# HCT-116 [28] = test: Cell cycle arrest in human HCT116 cells assessed as accumulation at S phase at 0.1 uM after 24 hrs by propidium iodide staining-based FACS analysis (reference value: 48 +/- 6 %); type: functional
compound,measurement,setting,value
N#Cc1cc2ccc(N3CCCCC3)cc2n2c1nc1ccccc12,IC50,MCF7,2000 nM
same,Activity,Calf thymus DNA [1],inactive
same,Activity,Nucleic Acid,inactive
same,Activity,Escherichia coli [2],Active
same,IC50,HCT-116 [3],8000 nM
same,IC50,[4],5000 nM
same,ΔTm,Calf thymus DNA [5],0 °C
same,Activity,Homo sapiens,inactive
same,Activity,[6],inactive
CC(C)CNc1ccc2cc(C#N)c3nc4ccccc4n3c2c1,Activity,HCT-116 [7],0%
same,Activity,HCT-116 [8],90%
same,IC50,MCF7,400 nM
same,Activity,Calf thymus DNA [1],inactive
same,Activity,HCT-116 [9],10%
same,Activity,HCT-116 [10],30%
same,Activity,HCT-116 [11],8%
same,Activity,HCT-116 [12],7%
same,Activity,HCT-116 [13],Dose-dependent effect
same,Activity,Escherichia coli [2],Active
same,IC50,HCT-116 [3],600 nM
same,inhibition at 50 µM,DNA,17%
same,Activity,Calf thymus DNA [14],Active
same,Activity,HCT-116 [15],85%
same,Activity,HCT-116 [16],16%
same,Activity,Escherichia coli [17],Active
same,Activity,HCT-116 [18],62%
same,Activity,HCT-116 [19],14%
same,Drug uptake,[20],Active
same,IC50,[4],300 nM
same,Activity,HCT-116 [21],40%
same,Activity,Escherichia coli [22],inactive
same,ΔTm,Calf thymus DNA [5],3.8 °C
same,Activity,HCT-116 [23],21%
same,Activity,HCT-116 [24],4%
same,Activity,HCT-116 [25],17%
same,Activity,Homo sapiens,inactive
same,Activity,HCT-116 [26],6%
same,Activity,HCT-116 [27],42%
same,Activity,HCT-116 [28],44%
same,Activity,[6],inactive
COc1cc([C@@H]2c3cc4c(cc3[C@@H](O[C@@H]3O[C@@H]5CO[C@@H](C)O[C@H]5[C@H](O)[C@H]3O)[C@H]3COC(=O)[C@H]23)OCO4)cc(OC)c1O,inhibition,DNA,inactive
CCCCNc1ccc2cc(C#N)c3nc4ccccc4n3c2c1,IC50,MCF7,1000 nM
same,IC50,HCT-116 [3],4000 nM
same,IC50,[4],2000 nM
CC[C@@]1(O)C(=O)OCc2c1cc1n(c2=O)Cc2cc3ccccc3nc2-1,inhibition,DNA,inactive
CCN(CC)c1ccc2cc(C#N)c3nc4ccccc4n3c2c1,IC50,MCF7,2000 nM
same,IC50,HCT-116 [3],2000 nM
same,IC50,[4],1600 nM
COc1cccc2c1C(=O)c1c(O)c3c(c(O)c1C2=O)C[C@@](O)(C(=O)CO)C[C@@H]3O[C@H]1C[C@H](N)[C@H](O)[C@H](C)O1 [DOXORUBICIN],inhibition at 50 µM,DNA,79%
CCN(CC)CCNc1ccc2cc(C#N)c3nc4ccccc4n3c2c1,IC50,MCF7,300 nM
same,IC50,HCT-116 [3],200 nM
same,IC50,[4],200 nM
N#Cc1cc2ccc(N3CCOCC3)cc2n2c1nc1ccccc12,IC50,MCF7,200 nM
same,Activity,Calf thymus DNA [1],Active
same,Activity,Escherichia coli [2],Active
same,IC50,HCT-116 [3],300 nM
same,IC50,[4],300 nM
same,Activity,Escherichia coli [22],inactive
same,ΔTm,Calf thymus DNA [5],0 °C
same,Activity,Homo sapiens,inactive
same,Activity,[6],inactive
O=C(O)CCCc1ccc(N(CCCl)CCCl)cc1 [CHLORAMBUCIL],inhibition at 50 µM,DNA,45%
CCCN(CCC)c1ccc2cc(C#N)c3nc4ccccc4n3c2c1,IC50,MCF7,2500 nM
same,IC50,HCT-116 [3],500 nM
same,IC50,[4],300 nM
CNc1ccc2cc(C#N)c3nc4ccccc4n3c2c1,IC50,MCF7,200 nM
same,IC50,HCT-116 [3],> 10000 nM
same,IC50,[4],> 10000 nM
CCCCCN(CCCCC)c1ccc2cc(C#N)c3nc4ccccc4n3c2c1,IC50,MCF7,39000 nM
same,Activity,Calf thymus DNA [1],inactive
same,Activity,Nucleic Acid,inactive
same,Activity,Escherichia coli [2],Active
same,IC50,HCT-116 [3],> 10000 nM
same,IC50,[4],> 10000 nM
same,ΔTm,Calf thymus DNA [5],0 °C
same,Activity,Homo sapiens,inactive
same,Activity,[6],inactive
